# Measurements from patent publication US12644087B2, “Methods to generate polymer scaffolds having a gradient of crosslinking density” (The University of North Carolina at Chapel Hill, priority 2016, dated 2026).
# Test system: primary human small intestinal epithelial cells
# Protocol: Continuous monolayers of primary human small intestinal epithelial cells were generated on the crosslinked collagen hydrogel scaffold. […] (FIG. 3B) Fluorescence images of cells showing the EDU staining (white/light gray) and Hoechst 33342 (dark gray). The cell culture time was 10 days for A and B. (FIG. 3C) TEER vs. time (n=3 scaffolds).
# To test this hypothesis, human small intestinal epithelial cells were plated on a hydrogel scaffold prepared in this manner, and the cell growth and TEER were monitored for up to 14 days (FIG. 3C). […] At day 10, the cells were stained with EDU (3-h pulse) to assess proliferating cells and Hoecsht nuclear stain to enable assessment of cell coverage across the scaffold (FIGS. 3A and 3B).
substance,measurement,value
Lucifer yellow,permeability of Lucifer yellow (apical to basal diffusion),2.4±0.7 ×10^−8 cm·s^−1
